Laboratory results: patent publication US12037363B2, “Peptides for Covid-19 prevention and treatment” (SOTIRA COVID, LLC, priority 2020, dated 2024)

Assays:
[1] = system: SARS-CoV2 in VERO E6 cells; assay: dual immunostaining of ACIS peptide and S-glycoprotein in infected VERO cells; format: cell-based; settings: 25 μM
Protocol: Further confirming the profound activity of KEPTIDE COVIDs in the attenuation of viral infection, a dual immunostaining analyses with ACIS peptide (green) and S-glycoprotein (red) was performed. DAPI staining was carried out to identify big nuclei of VERO cells. […] The result was further corroborated with a quantification study that clearly indicated a strong inhibition of viral load around ACIS-treated VERO cells (***p<0.0001) (FIG. 6B).
In order to evaluate the efficacy of the KEPTIDE COVID in suppressing the secondary or chronic infection of SARS-COV2, testing was performed by dual immunostaining procedure after six hours of viral infection. […] The effect was further confirmed with a quantitative analysis (FIG. 7B).
Double Immunocytochemistry analyses was performed where […] VERO Cells were plated per well in 8-well chamber slide. Cells were starved with serum-free DMEM media for 30 mins followed by the treatment with 25 μM FITC-labeled KEPTIDE COVID. After another 30 mins, unbound KEPTIDE COVIDs were aspirated and then added SARS-CoV2 at a dose of 1-2 PFU/cell. After 2 and 6 hours of virus treatment, viral cells were removed, VERO cells were fixed with 8% PFA and kept at 4° C. for overnight. […]

ACE-2 [2] = biological target: T1, ACE-2 (Homo sapiens, UniProt Q9BYF1); assay: surface plasmon resonance (SPR); settings: different concentrations of ACIS as analyte; hyperbolic binding curve
T1 sequence (Q9BYF1 18-805): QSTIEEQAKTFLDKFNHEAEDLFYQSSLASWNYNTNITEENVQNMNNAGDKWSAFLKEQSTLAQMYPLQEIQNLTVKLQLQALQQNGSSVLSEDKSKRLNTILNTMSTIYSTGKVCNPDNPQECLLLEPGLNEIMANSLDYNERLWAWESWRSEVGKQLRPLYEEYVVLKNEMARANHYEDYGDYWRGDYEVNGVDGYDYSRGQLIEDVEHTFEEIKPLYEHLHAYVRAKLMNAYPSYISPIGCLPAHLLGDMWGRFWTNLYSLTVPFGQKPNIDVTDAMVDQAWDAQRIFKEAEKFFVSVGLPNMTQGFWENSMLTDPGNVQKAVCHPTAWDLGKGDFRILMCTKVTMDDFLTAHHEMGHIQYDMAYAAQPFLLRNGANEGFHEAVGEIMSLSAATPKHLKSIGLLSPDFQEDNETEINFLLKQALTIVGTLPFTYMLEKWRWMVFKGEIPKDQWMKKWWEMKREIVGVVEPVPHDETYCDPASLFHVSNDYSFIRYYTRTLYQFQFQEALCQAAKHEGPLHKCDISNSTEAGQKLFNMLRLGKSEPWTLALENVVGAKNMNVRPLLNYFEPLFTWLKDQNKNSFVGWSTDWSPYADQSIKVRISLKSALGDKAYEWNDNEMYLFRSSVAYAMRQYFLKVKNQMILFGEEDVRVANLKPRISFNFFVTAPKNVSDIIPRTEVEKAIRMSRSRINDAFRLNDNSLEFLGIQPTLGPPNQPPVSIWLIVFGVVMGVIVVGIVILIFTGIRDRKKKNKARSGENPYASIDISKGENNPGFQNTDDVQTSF

[3] = system: SARS-CoV2 (SARS CoV-2 USA_WA1/2020) in VERO cells; assay: Cytopathic effect (agar monolayer invasion) test of supernatants of treated VERO cells; format: cell-based
[4] = biological target: full-length ACE-2 protein (Homo sapiens, UniProt Q9BYF1); assay: BLItz label-free bio-layer interferometry assay; format: binding
Chain of full-length ACE-2 protein (Q9BYF1 18-805): as above
Protocol: The ACIS peptide is specifically designed from the part of S-glycoprotein that is conserved only in the coronaviral family. Because of this specificity there is no possibility of any off-target effect. […] Blitz assay was used to confirm the specificity of ACIS peptide towards ACE-2 protein.
The experiment was performed based on manufacturer's instructions. Briefly, biotinylated ACIS peptide was bound to the BLItz streptavidin-linked biosensor. Different doses of ACE-2 enzyme were then charged to the ACIS peptide and then washed.
To further characterize the binding between ACIS and ACE-2, BLItz label-free bio-layer interferometry assay was performed. ACIS (0.25 μg/μL) was loaded to the sensor and titrated with different concentration of ACE-2 protein starting with the concentration as low as 10 nM. […] BLItz sensor was loaded with ACIS peptide (0.25 μg/μL) followed by titration with different concentrations of ACE-2 enzyme starting from nM range.
This can prevent or inhibit the infection of a host cell by SARS-CoV2 virus.

[5] = biological target: T2, interaction between S-glycoprotein and ACE-2 protein (Homo sapiens, UniProt Q9BYF1); assay: kit-based luminometric inhibitor screen assay; format: biochemical, SARS-CoV2
T2 construct: purchased
T2 sequence (Q9BYF1 18-740): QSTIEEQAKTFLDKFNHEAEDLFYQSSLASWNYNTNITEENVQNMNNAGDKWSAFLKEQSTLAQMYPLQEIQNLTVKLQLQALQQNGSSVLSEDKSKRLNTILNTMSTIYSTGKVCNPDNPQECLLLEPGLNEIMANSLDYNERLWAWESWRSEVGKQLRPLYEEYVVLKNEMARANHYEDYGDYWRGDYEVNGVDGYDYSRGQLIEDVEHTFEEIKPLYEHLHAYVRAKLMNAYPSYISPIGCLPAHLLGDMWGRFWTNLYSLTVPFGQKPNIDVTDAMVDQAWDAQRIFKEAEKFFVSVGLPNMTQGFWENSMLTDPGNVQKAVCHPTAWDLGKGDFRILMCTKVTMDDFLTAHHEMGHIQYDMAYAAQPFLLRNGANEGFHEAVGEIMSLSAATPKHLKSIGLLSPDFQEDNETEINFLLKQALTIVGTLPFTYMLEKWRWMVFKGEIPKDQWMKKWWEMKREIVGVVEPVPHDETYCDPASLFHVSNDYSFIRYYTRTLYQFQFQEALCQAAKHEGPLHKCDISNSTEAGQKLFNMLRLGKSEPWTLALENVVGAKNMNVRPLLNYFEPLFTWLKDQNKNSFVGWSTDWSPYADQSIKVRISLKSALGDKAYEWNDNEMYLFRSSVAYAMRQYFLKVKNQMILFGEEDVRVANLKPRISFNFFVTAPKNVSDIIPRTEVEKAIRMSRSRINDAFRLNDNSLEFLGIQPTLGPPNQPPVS
Excerpt: A kit-based luminometric inhibitor screen assay was used to evaluate the efficacy of the biotinylated and FITC labeled ACIS in inhibiting the interaction between S-glycoprotein and ACE-2 protein.

[6] = system: SARS-CoV2 in VERO E6 cells; assay: SARS-CoV2 plaque assay in VERO E6 cells; format: cell-based; settings: 25 μM pre-incubation 30 mins; compared to control; KEPTIDE1 at 1:20 dilution dose
ACE-2 [7] = biological target: T1, ACE-2; assay: fluorescence polarization (FP) assay; format: binding; settings: FITC tag at C-terminal end (FIG. 3C)

Row | SMILES | inhibition of viral particles, secondary or chronic infection ([1]; 6 hours of infection) | inhibition of entry of viral particles, acute infection ([1]; two hours of SARS-CoV2 treatment (1-2 PFU)) | interaction with ACE-2 enzyme (binding curve) (ACE-2 [2]) | damage of agar monolayer (loss of CV staining) by viral supernatants of treated VERO cells [3] | Kd [4] [nM] | minimum concentration with dose-dependent binding ([4]; sensor loaded with ACIS 0.25 μg/μL, titrated with ACE-2) [nM] | hillslope of the inhibition plot [5] | increase in protection, densitometric quantification of plaque assay [6] | concentration at which peptide binds with ACE-2 (ACE-2 [7]) [nM]
1 | CC(C)[C@H](NC(=O)CNC(=O)[C@H](CC(N)=O)NC(=O)[C@@H](NC(=O)[C@@H]1CCCN1C(=O)[C@H](CCC(N)=O)NC(=O)[C@@H](N)Cc1ccccc1)[C@@H](C)O)C(=O)NCC(=O)N[C@@H](Cc1ccc(O)cc1)C(=O)N[C@@H](CCC(N)=O)C(=O)N1CCC[C@H]1C(=O)N[C@@H](Cc1ccc(O)cc1)C(=O)NCC(=O)O [ACIS peptide, FQPTNGVGYQPYG] | continued to repel viral particles significantly from VERO cells | substantially inhibit the entry of viral particles | strong interaction with ACE-2 enzyme | significant damage in agar monolayer | 115 | 13 |  |  | 
2 | CC(C)[C@H](NC(=O)CNC(=O)[C@H](CC(N)=O)NC(=O)[C@@H](NC(=O)[C@@H]1CCCN1C(=O)[C@H](CCC(N)=O)NC(=O)[C@@H](N)Cc1ccccc1)[C@@H](C)O)C(=O)NCC(=O)N[C@@H](Cc1ccc(O)cc1)C(=O)N[C@@H](CCC(N)=O)C(=O)N1CCC[C@H]1C(=O)N[C@@H](Cc1ccc(O)cc1)C(=O)NCC(=O)N[C@@H](CCCCNC(=S)Nc1ccc2c(c1)C(=O)OC21c2ccc(O)cc2Oc2cc(O)ccc21)C(=O)O [KEPTIDE2] |  |  |  |  |  |  | −2.4 | three-fold increase in protection | 6.376
